These results are taken from patent publication US11548897B2, “Crystalline forms of a triazolopyrimidine compound” (NOVARTIS AG, priority 2016, dated 2023).

The nature of data set [1]: Rodent pharmacokinetic studies, exposure versus dose. The following applies: higher doses. The format is in vivo.
The nature of data set [2]: Solubility in selected solvents (Table 2). The format is physicochemical. The conditions noted are these: thermodynamic from solid; for solubility at 2 h: 50° C.; for solubility: rt. The method, then:
To 10 mg of compound X in a sample vial at 50° C., selected solvent was added dropwise. The addition of solvent was stopped when a clear solution was reached or when the amount of solvent reached 1 mL. The resulting mixture was stirred continuously at 50° C. for 2 h, then cooled to rt, and stirred overnight. The solubilities at 50° C. and rt were determined by the homogeneity of the resulting mixture.

The subject of data set [3] is H3K27 methylation in G401 cell. Kind of data set: ELISA (H3K27 methylation) assay. The data set is classed as cell-based. The following applies: Homo sapiens, G-401; ELISA Qualified, G401 cells, 48 h; read-out: (c) IC50. The method, then: ELISA (H3K27 Methylation) Assay
Representative compounds of the present invention were serially and separately diluted 3-fold in DMSO to obtain a total of eight or twelve concentrations. Then the compounds were added to G401 cell cultured in 384-well plate at 1:500 dilution to obtain the highest concentration of 20 μM. The cells were further cultured for 48 h before ELISA procedure.
Histone extraction: Cells, in 384-well plate, were washed with PBS (10×PBS buffer (80 g NaCl (Sigma, S3014), 2 g KCl (Sigma, 60128), 14.4 g Na2HPO4 (Sigma, S5136), 2.4 g KH2PO4 (Sigma, P9791) to 1 L water, pH to 7.4) and lysed with the addition of lysis buffer (0.4N HCl; 45 μL per well). The plate was gently agitated at 4° C. for 30 min. The cell lysate was neutralized with neutralization buffer (0.5 M sodium phosphate dibasic, pH 12.5, 1 mM DTT; 36 μL per well). The plate was agitated to ensure the lysates were well mixed prior to the ELISA protocol.
ELISA protocol: Cell lysates were transferred to the wells of a 384-well plate and the final volume was adjusted to 50 μL per well with PBS. The plate was sealed, centrifuged at 2,000 rpm for 2 min and incubated at 4° C. for about 16 h. […] The signal was read using a PerkinElmer Envision Reader. The H3K27 methylation readouts were normalized using H3 signal and then percentage inhibition was calculated against the samples treated with DMSO. […]
Background: ELISA stands for enzyme-linked immunosorbent assay.

Data set [4] relates to B cell lymphoma cell KARPAS422. In words: Analysis of cell proliferation. The format is cell-based. The conditions noted are these: Homo sapiens, KARPAS-422, 336 h; KARPAS422, after 14 days of treatment; read-out: antiproliferative activities (IC50 values). The method, then:
Analysis of Cell Proliferation
B cell lymphoma cell KARPAS422 was cultured using standard cell culture conditions in RPMI-1640 (Invitrogen, cat #11875) supplemented with 15% FBS (Invitrogen, cat #10099-141) in humidified incubator at 37° C., 5% CO2. To assess the effect of PRC2 inhibition on cell proliferation, exponentially growing cells were seeded at a density of 1×10^5 cells/mL in 12-well plate (Corning, cat #CLS3513). After cell seeding, a compound of the present invention was added to the cell media (in concentrations ranging from 0 to 100 μM, 3× dilution series). Viable cell numbers were determined every 3-4 days for up to 14 days using Vi-CELL (Beckman Coulter). On days of cell counting, fresh growth media and compound were replenished and cells split back to a density of 1×10^5 cells/mL. Total cell number is expressed as split-adjusted viable cells per mL. The dose response curves and IC50 values were generated using Prism.

Data set [5] is described as follows: Aqueous solubility (pH 7.4, simulated gastric fluid). The data set is classed as physicochemical.
Data set [6] in a line: Stability of solid form to humidity and temperature. The data set is classed as physicochemical. The method, then: Dynamic vapor sorption was performed on a Surface Measurement Systems DVS Advantage instrument. Approximately 10 mg of material was loaded into a sample pan. The samples were exposed to sorption/desorption cycles in 10% relative humidity (RH) steps over the range of 50%-90%-0%-90%-50% RH at 25° C. and 50° C. A target equilibrium condition of mass change less than 0.002% over 5 min was set, with minimum and maximum equilibrium periods of 10 and 360 min, respectively. The carrier gas was nitrogen with a flow rate of 100 mL/min. The system is calibrated with saturated salt solutions. The weight percentage change (wt %) of the sample at each stage was measured and plotted versus the target partial pressure.

Setting [7] is: aqueous with cosolvent or surfactant or cyclodextrin, Acetone/H2O (1/1).
Setting [8] is: aqueous with cosolvent or surfactant or cyclodextrin, EtOH/H2O (1/1).
Setting [9] is: organic solvent or mixture, ACN.
Setting [10] is: organic solvent or mixture, Acetone.
Where [11] appears, read: organic solvent or mixture, EtOAc.
Setting [12] is: organic solvent or mixture, EtOH.
Setting [13] is: organic solvent or mixture, Heptane.
The mark [14] stands for this setting: organic solvent or mixture, IPA.
Setting [15] is: organic solvent or mixture, MTBE.
Where [16] appears, read: organic solvent or mixture, MeOH.
The mark [17] stands for this setting: organic solvent or mixture, THF.

As to `Cc1ncccc1-c1cnc(NCc2c(F)ccc3c2CCO3)n2cnnc12` [Compound A, N-((5-Fluoro-2,3-dihydrobenzofuran-4-yl)methyl)-8-(2-methylpyridin-3-yl)-[1,2,4]triazolo[4,3-c]pyrimidin-5-amine], the “exposure relative to dose” value in data set [1] was “under-proportional”. The solubility at 2 h in data set [2] (setting [7]), in data set [2] (setting [8]), in data set [2] (setting [9]), in data set [2] (setting [10]), in data set [2] (setting [11]) and in data set [2] (setting [12]) was less than 10000 µg/mL throughout. In addition, the solubility at 2 h in data set [2] (setting [13]), in data set [2] (setting [14]), in data set [2] (setting [15]), in data set [2] (setting [16]), in data set [2] (setting [17]) and in data set [2] (Water) was less than 10000 µg/mL throughout. Moreover, the solubility in data set [2] (setting [7]), in data set [2] (setting [8]), in data set [2] (setting [9]), in data set [2] (setting [10]), in data set [2] (setting [11]) and in data set [2] (setting [12]) was less than 10000 µg/mL in each case. Also, the solubility in data set [2] (setting [13]), in data set [2] (setting [14]), in data set [2] (setting [15]), in data set [2] (setting [16]), in data set [2] (setting [17]) and in data set [2] (Water) was less than 10000 µg/mL in each case. Besides, the IC50 (in general, the concentration that gives 50% inhibition) was found to be 2.6 nM in data set [3] and 3 nM in data set [4]. Besides, the aqueous solubility entry in data set [5] (physiologically relevant pH level of 7.4) and in data set [5] (simulated gastric fluid (SGF)) was “low” each time.

For `Cc1ncccc1-c1cnc(NCc2c(F)ccc3c2CCO3)n2cnnc12.Cl` [Compound X, N-((5-Fluoro-2,3-dihydrobenzofuran-4-yl)methyl)-8-(2-methylpyridin-3-yl)-[1,2,4]triazolo[4,3-c]pyrimidin-5-amine hydrochloride], the “exposure relative to dose” value in data set [1] is reported as “dose-proportional”. Also, the solubility (in general, how much of the substance goes into solution per volume) at 2 h is greater than 50000 µg/mL in data set [2] (setting [7]); greater than 50000 µg/mL in data set [2] (setting [8]); less than 10000 µg/mL in data set [2] (setting [9]); less than 10000 µg/mL in data set [2] (setting [10]); less than 10000 µg/mL in data set [2] (setting [11]); less than 10000 µg/mL in data set [2] (setting [12]). The solubility at 2 h was less than 10000 µg/mL in data set [2] (setting [13]); less than 10000 µg/mL in data set [2] (setting [14]); less than 10000 µg/mL in data set [2] (setting [15]); greater than 10000 µg/mL in data set [2] (setting [16]); less than 10000 µg/mL in data set [2] (setting [17]); less than 10000 µg/mL in data set [2] (Water). Moreover, the solubility is less than 50000 µg/mL in data set [2] (setting [7]); less than 50000 µg/mL in data set [2] (setting [8]); less than 10000 µg/mL in data set [2] (setting [9]); less than 10000 µg/mL in data set [2] (setting [10]); less than 10000 µg/mL in data set [2] (setting [11]); less than 10000 µg/mL in data set [2] (setting [12]). The solubility in data set [2] (setting [13]) is less than 10000 µg/mL; in data set [2] (setting [14]) it was less than 10000 µg/mL; in data set [2] (setting [15]), less than 10000 µg/mL; in data set [2] (setting [16]), greater than 10000 µg/mL; in data set [2] (setting [17]), less than 10000 µg/mL; in data set [2] (Water), less than 10000 µg/mL.

As for `Cc1ncccc1-c1cnc(NCc2c(F)ccc3c2CCO3)n2cnnc12.Cl` [Form HA, N-((5-Fluoro-2,3-dihydrobenzofuran-4-yl)methyl)-8-(2-methylpyridin-3-yl)-[1,2,4]triazolo[4,3-c]pyrimidin-5-amine hydrochloride], the “stability to humidity and temperature” value in data set [6] is listed as “acceptable stability”.
